Source: publication PMC6172217, “A handheld platform for target protein detection and quantification using disposable nanopore strips” (Scientific Reports, 2018)

Tested on: 309 bp/bisPNA-affibody
Experiment: EMSA, TNFα complex formation
Type: binding

TNFα
EMSA complex formation (309 bp/PNA-affibody + TNFα, 1 h room temperature, pH 7.4): full DNA/PNA-affibody/TNFα complex formation | EMSA saturation, ratio TNFα to scaffold/bisPNA-affibody (band intensity appears to saturate): ≥ 3 X
